Consider 21 compounds from PMC9542104, “Druggability Evaluation of the Neuron Derived Orphan Receptor (NOR‐1) Reveals Inverse NOR‐1 Agonists” (Chemmedchem, 2022).

What is called IC50 is the concentration that gives 50% inhibition. A word on the EC50: it is the concentration at which the effect is half-maximal.

The target in assay [1] is T1, Gal4‐NOR‐1 (human NOR‐1 LBD) (Homo sapiens, UniProt Q92570).
T1 construct: coding for the hinge region and LBD of the canonical isoform of NOR‐1; expressed in transfected cells; host or cells: HEK293T
T1 sequence (Q92570 394-623 limits assumed): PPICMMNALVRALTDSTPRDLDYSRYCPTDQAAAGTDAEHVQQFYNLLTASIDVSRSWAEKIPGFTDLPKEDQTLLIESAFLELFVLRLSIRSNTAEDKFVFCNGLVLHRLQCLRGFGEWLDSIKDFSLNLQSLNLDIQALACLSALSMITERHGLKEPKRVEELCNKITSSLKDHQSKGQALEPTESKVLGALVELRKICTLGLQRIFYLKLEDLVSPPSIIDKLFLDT
In words: Gal4 hybrid reporter gene assay for NOR‐1 activity in HEK293T cells. In kind it is cell-based. Conditions: for IC50: read-out: IC50 (NOR‐1), inverse agonism; for remaining NOR‐1 activity: Gal4‐NOR‐1, remaining activity at maximum inverse agonist effect; for type of NOR‐1 modulation: Gal4‐NOR‐1; for NOR‐1 activity / activity on NOR‐1: Gal4‐NOR‐1, 100 μM. As for the experimental part:
The screening assay was based on the Gal4 hybrid system[13] and employed a chimeric receptor composed of the human NOR‐1 LBD and the Gal4 DNA binding domain from yeast. Firefly luciferase under the control of five tandem repeats of the Gal4 response element served as reporter gene and constitutively expressed renilla luciferase was used for normalization and toxicity monitoring. Control experiments were conducted with the ligand‐independent transcriptional inducer Gal4‐VP16[14, 15] (replacing Gal4‐NOR‐1) to exclude non‐specific effects.
Hybrid reporter gene assays. The reporter gene assay was performed as reported previously[25] in HEK293T cells in 96‐well format using pFR‐Luc (Stratagene, La Jolla, CA, USA; reporter), pRL‐SV40 (Promega, Madison, WI, USA; control) and the Gal4‐NOR‐1 fusion receptor plasmid pFA‐CMV‐hNOR‐1‐LBD coding for the hinge region and LBD of the canonical isoform of NOR‐1 or pECE‐SV40‐Gal4‐VP16[15] […] In the primary screening, the core set of the Prestwick Drug Fragments Library was tested at 100 μM in two biologically independent repeats. All other samples were tested in duplicates in at least three biologically independent repeats. Luminescence was measured with a Spark 10 M luminometer (Tecan Group AG, Mannedorf, Switzerland), firefly luciferase data were divided by Renilla luciferase data and multiplied by 1000 to obtain relative light units (RLU). Fold activation was obtained by dividing the mean RLU of a test compound at a respective concentration by the mean RLU of untreated control. Dose‐response curves were fitted with the equation “[Agonist]/[Inhibitor] vs. response (three parameters)” in GraphPad Prism (version 7.00, GraphPad Software, La Jolla, CA, USA).
Background: Reporter assays use an easily measured gene product as a stand-in for the process of interest.

A further assay concerns the target T2, Gal4‐VP16 (Saccharomyces cerevisiae, UniProt P04386).
T2 construct: host or cells: HEK293T
In words: Gal4‐VP16 control reporter gene assay in HEK293T cells. In kind it is cell-based. The following applies: 100 μM. The text has this:
To rapidly probe druggability of NOR‐1 and identify potential ligand scaffolds, we have established a robust reporter gene assay to monitor NOR‐1 activity and screened a medium size fragment library for NOR‐1 modulation. The screening assay was based on the Gal4 hybrid system[13] and employed a chimeric receptor composed of the human NOR‐1 LBD and the Gal4 DNA binding domain from yeast. Firefly luciferase under the control of five tandem repeats of the Gal4 response element served as reporter gene and constitutively expressed renilla luciferase was used for normalization and toxicity monitoring. Control experiments were conducted with the ligand‐independent transcriptional inducer Gal4‐VP16[14, 15] (replacing Gal4‐NOR‐1) to exclude non‐specific effects. The commercially available fragment screening library (core set of the Prestwick drug fragments library) comprised 480 compounds with favorable fragment properties (Figure 1a) and offered high structural diversity as illustrated by low average pairwise Jaccard‐Tanimoto similarity computed on Morgan fingerprints[16] (median 0.13; Figure 1b) and by a total of 77 unique Murcko scaffolds.[17] […]
Hybrid reporter gene assays. […] Luminescence was measured with a Spark 10 M luminometer (Tecan Group AG, Mannedorf, Switzerland), firefly luciferase data were divided by Renilla luciferase data and multiplied by 1000 to obtain relative light units (RLU). […]

The test system of a further assay is NOR‐1. The following applies: cited from earlier work.
Assay [2] has as its system MYC mRNA expression in HeLa cells. The assay is classed as cell-based. Conditions: 16 h, 1 at 100 and 300 μM, 19 at 10 and 30 μM, GAPDH as reference gene, n=4. From the text:
The following primers were used: GAPDH: fw: [NT].

Assay [3] deals with T3, interaction of NOR‐1 with SMRT (Homo sapiens, UniProt Q92570).
T3 construct: coding for the hinge region and LBD of the canonical isoform of NOR‐1; expressed in transfected cells; host or cells: HEK293T
T3 sequence (Q92570 394-623 limits assumed): T1 sequence (Q92570 394-623 limits assumed)
Nature of the assay: Reporter gene assay for NOR‐1 interaction with SMRT in HEK293T cells. In kind it is cell-based. Conditions: n=3, read-out: IC50, antagonism of NOR‐1 interaction with SMRT. The protocol:
(§1) Reporter gene assays for NOR‐1 interactions with NCoR1 and SMRT. The interaction of NOR‐1 with NCoR1 and SMRT was studied in reporter gene assays in HEK293T cells using pFR‐Luc, pRL‐SV40 and pFA‐CMV‐hNOR‐1‐LBD in combination with either pFTI‐CMV‐NCoR1 or pFTI‐CMV‐SMRT, which code for fusion proteins composed of the transcriptional inducer VP16 and fragments of the nuclear receptor co‐regulators NCoR1 or SMRT comprising one interaction motif.[29] […] After 24 h, the medium was changed to Opti‐MEM without supplements and the cells were transiently transfected with above‐described plasmids using Lipofectamine LTX reagent (Invitrogen). […] After 16 h incubation, cells were assayed for luciferase activity using the Dual‐Glo Luciferase Assay System (Promega) and luminescence was measured with a Spark 10 M luminometer (Tecan Group Ltd). Each sample was tested in duplicates in three independent experiments. Firefly luciferase data were divided by renilla luciferase data to obtain relative light units (RLU) and RLU of each test sample were normalized to the negative control (0.1 % DMSO).

In assay [4] the target is T4, interaction of NOR‐1 with NCoR1 (Homo sapiens, UniProt Q92570).
T4 construct: coding for the hinge region and LBD of the canonical isoform of NOR‐1; expressed in transfected cells; host or cells: HEK293T
T4 sequence (Q92570 394-623 limits assumed): T1 sequence (Q92570 394-623 limits assumed)
Nature of the assay: Reporter gene assay for NOR‐1 interaction with NCoR1 in HEK293T cells. In kind it is cell-based. Conditions: n=3, read-out: IC50, antagonism of NOR‐1 interaction with NCoR1. As for the experimental part: as §1

Where two headings read alike, the source gives them in different places.

T2 sequence (P04386 1-147, added parts left off): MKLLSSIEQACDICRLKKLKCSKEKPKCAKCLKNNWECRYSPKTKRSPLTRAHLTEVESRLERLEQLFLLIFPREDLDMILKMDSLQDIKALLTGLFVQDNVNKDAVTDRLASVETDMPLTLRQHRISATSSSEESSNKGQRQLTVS

Take `COC(=O)c1c(Cl)[nH]c2ccccc12` [compound 12]: in assay [1] (Gal4‐NOR‐1, HEK293T cells, n=4), the IC50 is above 100 µM.

In the case of `COC(=O)c1c[nH]c2ccc(Cl)cc12` [compound 14], the IC50 in assay [1] (Gal4‐NOR‐1, HEK293T cells, n=4) was determined as 14 ± 2 µM. Besides, the “remaining NOR‐1 activity” value in assay [1] (n=4) was determined as 12±4%. Besides, in assay [1] (versus lead 1), the “improvement in inverse NOR‐1 agonist potency” value amounted to 3.5 fold.

Take `CC(=O)N1CCN(c2ccc(O)cc2)CC1` [compound 2]: the “effect on Gal4‐VP16 induced reporter activity” value on Gal4‐VP16 is reported as “no suppression”. Also, in assay [1], the “type of NOR‐1 modulation” value is given as “inverse agonist”. The IC50 in assay [1] (Gal4‐NOR‐1, HEK293T cells, n=4) came to 73 µM. Also, the “remaining NOR‐1 activity” value in assay [1] (n=4) was found to be 64±7%.

As to `Clc1ccc(N2CCNCC2)cc1` [compound 6, 4‐chlorophenylpiperazine], in assay [1], the “type of NOR‐1 modulation” value was “weak agonists”. Further, the “NOR‐1 activity” value in assay [1] (n=4) is recorded as 120±6 % NOR‐1 activity (100 μM).

`Oc1ccc(N2CCNCC2)cc1` [compound 4]: the “activity on NOR‐1” value in assay [1] was “inactive (100 μM)”.

Consider `COC(=O)c1c[nH]c2cc(Cl)ccc12` [compound 15], for which the IC50 in assay [1] (Gal4‐NOR‐1, HEK293T cells, n=4) is above 100 µM.

For `Sc1ncnc2nc[nH]c12` [6‐mercaptopurine], the “binding to the NOR‐1 ligand binding domain (LBD)” value with NOR‐1 is given as “does not bind”. Further, the “effect on NOR‐1 activity” value in the assay on NOR‐1 (requires the N‐terminal AF‐1 of NOR‐1) was “enhanced NOR‐1 activity”.

Turning to `COc1ccc(N2CCNCC2)cc1` [compound 9, 4‐Methoxyphenylpiperazine], the “activity on NOR‐1” value in assay [1] was “inactive (100 μM)”.

As to `COC(=O)c1c[nH]c2ccc(C)cc12` [compound 17], the IC50 in assay [1] (Gal4‐NOR‐1, HEK293T cells, n=4) was determined as 35 ± 8 µM. For the same compound, in assay [1] (n=4), the “remaining NOR‐1 activity” value was determined as 2±7%.

As for `COC(=O)c1c[nH]c2ccccc12` [compound 1], at Gal4‐VP16, the “effect on Gal4‐VP16 induced reporter activity” value is reported as “no suppression”. In assay [1], the “type of NOR‐1 modulation” value was “inverse agonist”. Besides, the IC50 in assay [1] (Gal4‐NOR‐1, HEK293T cells, n=4) is 47 ± 8 µM. For the same compound, the “remaining NOR‐1 activity” value in assay [1] (n=4) is listed as 47±6%. In addition, in assay [2], the “effect on MYC expression” value was “induced MYC expression”.

For the compound `CCCCC[C@H](O)/C=C/[C@H]1C=CC(=O)[C@@H]1C/C=C\CCCC(=O)O` [prostaglandin A2], in the assay on NOR‐1 (through direct interaction with its LBD), the “effect on NOR‐1 activity” value is on record as “weakly activates NOR‐1”.

Regarding `COC(=O)c1c[nH]c2cccc(Cl)c12` [compound 13], the IC50 in assay [1] (Gal4‐NOR‐1, HEK293T cells, n=4) was above 100 µM.

In the case of `Nc1ccc(N2CCNCC2)cc1` [compound 8, 4‐aminophenylpiperazine], the “type of NOR‐1 modulation” value in assay [1] was “weak agonists”. The “NOR‐1 activity” value in assay [1] (n=4) is 124±2 % NOR‐1 activity (100 μM).

Consider `CC(=O)N1CCN(c2ccccc2)CC1` [compound 5], for which the “NOR‐1 activity” value in assay [1] (n=4) was 93±1 % NOR‐1 activity (100 μM).

As to `COC(=O)c1c[nH]c2c(Cl)cccc12` [compound 16], the IC50 in assay [1] (Gal4‐NOR‐1, HEK293T cells, n=4) was above 100 µM.

For `CN1CCN(c2ccc(N)cc2)CC1` [compound 10], the “activity on NOR‐1” value in assay [1] was “inactive (100 μM)”.

Regarding `COC(=O)c1c[nH]c2ccc(Br)cc12` [compound 19, Methyl 5‐bromoindole‐3‐carboxylate], the IC50 in assay [3] turned out to be 9 ± 2 µM; in assay [4], 12 ± 3 µM; in assay [1] (Gal4‐NOR‐1, HEK293T cells, n=4), 8 ± 1 µM. In assay [1] (n=4), the “remaining NOR‐1 activity” value came out at 7±3%. Further, the “effect on MYC expression” value in assay [2] is on record as “induced MYC expression”.

Take `COC(=O)c1c[nH]c2ccc(OC)cc12` [compound 18]: the IC50 in assay [1] (Gal4‐NOR‐1, HEK293T cells, n=4) came to 43 ± 5 µM. In addition, the “remaining NOR‐1 activity” value in assay [1] (n=4) amounted to 13±4%.

Turning to `O=C(O)CCc1ccc(Cl)cc1` [compound 3], the “type of NOR‐1 modulation” value in assay [1] is listed as “agonist”. For the same compound, the EC50 in assay [1] (Gal4‐NOR‐1, HEK293T cells, n=4, read-out: EC50 (NOR‐1), agonism) is 44 ± 6 µM. The “max. activation of NOR‐1” value in assay [1] (Gal4‐NOR‐1, n=4) was 132±4%. Further, in assay [1] (fixed concentration of 1 (100 μM), n=3), the “effect of added inverse agonist 1 on the EC50 value of 3 (competition experiment)” value was “did not affect the EC50 value”.

Take `COC(=O)c1c[nH]c2ccc(-c3ccccc3)cc12` [compound 20]: in assay [1] (Gal4‐NOR‐1, HEK293T cells, n=4), the IC50 came out at 4 ± 2 µM. Besides, the “remaining NOR‐1 activity” value in assay [1] (n=4) came out at 49±5%.

Consider `COC(=O)c1cn(-c2ccccc2)c2ccccc12` [compound 11], for which the “activity on NOR‐1” value in assay [1] was “inactive”.
